# In patent US5853721A, “Antibody to interleukin-12 receptor” (Hoffmann-La Roche Inc., priority 1995, dated 1998):
# What was measured:
# IL-12 receptor = test: Steady state 125I-IL-12 binding to human cells (Scatchard)
# [1] = biological target: T1, detergent solubilized IL-12R from Kit 225/K6 cells (Homo sapiens, UniProt P42701); test: 125I-IL-12 binding to detergent solubilized IL-12R immunoprecipitated by immobilized 2*4E6; details: proteins immunoprecipitated by immobilized 2*4E6 from solubilized K6 cell extracts; read-out: apparent affinity of 125I-IL-12, single site
# T1 construct: were solubilized with 8 mM CHAPS extraction buffer; endogenous in cells; host or cells: Kit 225/K6 cells, CHAPS extract
# Description: FIG. 8A: Kit 225/K6 cells (1.5×10^8 cells/ml) were solubilized with 8 mM CHAPS extraction buffer and the cell extract (0.2 ml) was immunoprecipitated for 16 hrs at 4° C. with mAb 2*4E6 immobilized on goat anti-mouse IgG coupled to agarose as discussed below. Following this incubation, the beads were pelleted, washed and resuspended in IP buffer containing ^125 I-IL-12 at concentrations ranging from 7 pM to […]. The IL-12R immobilized on the 2*4E6 coated beads was incubated with ^125 I-IL-12 for 2 hrs at RT and IL-12R bound radioactivity was determined in the presence of 50 nM unlabelled IL-12.
# To confirm that the antibodies identified by the immunoprecipitation assay were specific for IL-12R, an immunoprecipitation/soluble IL-12R binding assay was developed. […] Following this incubation, the beads were pelleted, washed twice with IP buffer and the bound radioactivity determined in a gamma counter. Nonspecific binding was determined by inclusion of 70 nM unlabeled human IL-12 in the assay. Solubilized IL-12R binding data were analyzed according to the method of Scatchard, (Assn. N.Y. Acad. Sci., 51, 660 (1949)) by using the nonlinear regression programs EBDA and Ligand as adapted for the IBM PC by McPherson, from Elsevier-BIOSOFT.
# [2] = biological target: T2, human recombinant IL-12 receptor β subunit (Homo sapiens, UniProt P42701); test: Equilibrium binding of 125I-IL-12 and 125I-2*4E6 to recombinant IL-12R expressed in COS cells
# T2 construct: expressed in transfected cells; host or cells: COS / COS-7 cells
# Description: COS cells (4-5×10^7) were transfected by electroporation with 25 μg of plasmid DNA expressing recombinant human IL-12R (Chua, et al., J. Immunol., 153:128 (1994)) in a BioRad Gene Pulser (250 μF, 250 volts) according to the manufacturer's protocol. The cells were plated in a 600 cm^2 culture plate, harvested after 72 hours by scraping, washed and resuspended in binding buffer. Transfected cells (8×10^4) were incubated with increasing concentrations of ^125 I-labeled 2*4E6 or IL-12 at room temperature for 2 hrs. Cell bound radioactivity was separated from free ^125 I-labeled 2*4E6 or IL-12 as described above.
# IL-12R [3] = biological target: T3, IL-12R (Homo sapiens, UniProt P42701); test: Inhibition of 125I-2*4E6 binding to cells by unlabeled competitor; design: endogenous in cells; host or cells: Kit 225/K6 cells; details: PHA-activated PBMCs (FIG. 6)
# From the text: The data are expressed as the amount of ^125 I-2*4E6 bound [CPM BOUND (Percent)] to the cells in the presence of the indicated concentrations of unlabeled antibody or IL-12 when compared with the total specific binding in the absence of unlabeled competitor.
# IL-12R [4] = biological target: T3, IL-12R; test: Steady state 125I-IL-12 binding to human cells (Scatchard); design: human cells that naturally express IL-12R; endogenous in cells; receptor-negative PBMC, MRC-5, HL-60; details: PHA-activated PBMCs, Kit-225 and Kit 225/K6 cells; third (low affinity) site
substance,measurement,setting,value
IL-12: 75-kDa heterodimeric cytokine of disulfide-bonded 40-kDa and 35-kDa subunits,"IL-12 BINDING (KD, Sites/cell)",IL-12 receptor; HL-60,none detectable
same,"IL-12 BINDING (KD, Sites/cell)",IL-12 receptor; MRC-5,none detectable
same,"IL-12 BINDING (KD, Sites/cell)",IL-12 receptor; RAJI cells,none detectable
same,Kd,"IL-12 receptor; YT cells, 2 sites",0.109 nM
same,"IL-12 BINDING (KD, Sites/cell)",IL-12 receptor; non-activated human PBMC,none detected
same,Kd,[1],0.188 nM
same,Kd,"[2]; rIL-12R β-expressing COS cells, read-out: apparent affinity of 125I-IL-12, single binding site",2 to 6 nM
same,125I-IL-12 sites/cell,[2]; rIL-12R-expressing COS cells,"approximately 150,000 sites/cell"
same,block of 125I-2*4E6 binding by unlabeled competitor,IL-12R [3],does not block
same,Kd,IL-12R [4],2 to 6 nM
